# Reference: patent US6355799B1, “Substituted benzene compounds, process for their preparation, and herbicidal and defoliant compositions containing them” (ISK Americas Incorporated, priority 1997, dated 2002)
# What was measured:
# Type in all cases: in vivo
# [1] = tested on: redroot pigweed (Amaranthus retroflexus, AMARE); assay: Pre-emerge test, greenhouse herbicide activity screening; details: rating scale 0-100, 14 days after application
# In short: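 Herbicidal damage is scored 0 (none) to 100 (complete plant death) two weeks after a simulated field spray. Rates span 15–1000 g ai/ha, delivered in acetone at 187 l/ha. For post-emergence treatments, plants have 2–3 leaves and the spray carries 0.25% v/v non-ionic surfactant.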
# [2] = tested on: velvetleaf (Abutilon theophrasti, ABUTH); assay: Post-emerge test, greenhouse herbicide activity screening; details: rating scale 0-100 (0 no damage, 100 complete death), 14 days after application
# In short: (§1)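 Fourteen days after spraying, crop and weed injury was graded visually from 0, no effect, to 100, every plant dead. Test substances were dissolved in acetone and applied at 15–1000 g ai/ha with a flat-fan nozzle. Application was either pre-emergence, one day after sowing, or post-emergence at the 2–3 leaf stage.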
# [3] = tested on: johnsongrass (Sorghum halepense, SORHA); assay: as above; details: rating scale 0-100 (0 no damage, 100 complete death), 14 days after application
# In short: as §1
# [4] = tested on: redroot pigweed (Amaranthus retroflexus, AMARE); assay: as above; details: rating scale 0-100 (0 no damage, 100 complete death), 14 days after application
# In short: as §1
# [5] = tested on: barnyardgrass (Echinochloa crus-galli, ECHCG); assay: as above; details: rating scale 0-100 (0 no damage, 100 complete death), 14 days after application
# In short: as §1
# [6] = tested on: lambsquarters (Chenopodium album, CHEAL); assay: as above; details: rating scale 0-100 (0 no damage, 100 complete death), 14 days after application
# In short: as §1
# [7] = tested on: ivyleaf morningglory (Ipomoea hederacea, IPOHE); assay: as above; details: rating scale 0-100 (0 no damage, 100 complete death), 14 days after application
# In short: as §1
# [8] = tested on: green foxtail (Setaria viridis, SETVI); assay: as above; details: rating scale 0-100 (0 no damage, 100 complete death), 14 days after application
# In short: as §1
# [9] = tested on: sicklepod (Cassia obtusifolia, CASOB); assay: as above; details: rating scale 0-100 (0 no damage, 100 complete death), 14 days after application
# In short: as §1
# [10] = tested on: large crabgrass (Digitaria sanguinalis, DIGSA); assay: as above; details: rating scale 0-100 (0 no damage, 100 complete death), 14 days after application
# In short: as §1
# [11] = tested on: field corn (Zea mays L., var. Dekalb 535, CORN); assay: Pre-emerge test, crop safety; details: rating scale 0-100, 14 days after application
# In short: (§2)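 Visual ratings on a 0-100 scale (0 no damage, 100 all plants dead) were taken at 14 days after treatment. Rates of 15-1000 g ai/ha in acetone, 187 l/ha, were sprayed onto soil one day after planting (pre-emerge) or onto 2-3 leaf plants with 0.25% v/v surfactant (post-emerge).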
# [12] = tested on: upland rice (Oryza sp., var. Tebonnet, RICE); assay: Pre-emerge test, crop safety; details: rating scale 0-100, 14 days after application
# In short: as §2
# [13] = tested on: velvetleaf (Abutilon theophrasti, ABUTH); assay: Pre-emerge test, greenhouse herbicide activity screening; details: rating scale 0-100, 14 days after application
# In short: (§3)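 Compounds in acetone were track-sprayed at 15-1000 g ai/ha (187 l/ha) on sandy loam pots: pre-emerge one day after seeding, post-emerge at 2-3 leaf stage with 0.25% v/v non-ionic surfactant. Phytotoxicity was rated 14 days later on a 0 (no damage) to 100 (complete death) scale.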
# [14] = tested on: johnsongrass (Sorghum halepense, SORHA); assay: as above; details: rating scale 0-100, 14 days after application
# In short: as §3
# [15] = tested on: common ragweed (Ambrosia artemisizfolia L., AMBEL); assay: as above; details: rating scale 0-100, 14 days after application
# In short: as §3
# [16] = tested on: barnyardgrass (Echinochloa crus-galli, ECHCG); assay: as above; details: rating scale 0-100, 14 days after application
# In short: as §3
# [17] = tested on: lambsquarters (Chenopodium album, CHEAL); assay: as above; details: rating scale 0-100, 14 days after application
# In short: as §3
# [18] = tested on: ivyleaf morningglory (Ipomoea hederacea, IPOHE); assay: as above; details: rating scale 0-100, 14 days after application
# In short: as §3
# [19] = tested on: green foxtail (Setaria viridis, SETVI); assay: as above; details: rating scale 0-100, 14 days after application
# In short: as §3
# [20] = tested on: sicklepod (Cassia obtusifolia, CASOB); assay: as above; details: rating scale 0-100, 14 days after application
# In short: as §3
# [21] = tested on: large crabgrass (Digitaria sanguinalis, DIGSA); assay: as above; details: rating scale 0-100, 14 days after application
# In short: as §3
# [22] = tested on: field corn (Zea mays L., var. Dekalb 535, CORN); assay: Post-emerge test, crop safety; details: rating scale 0-100 (0 no damage, 100 complete death), 14 days after application
# In short: as §3
# [23] = tested on: upland rice (Oryza sp., var. Tebonnet, RICE); assay: Post-emerge test, crop safety; details: rating scale 0-100 (0 no damage, 100 complete death), 14 days after application
# In short: as §3
smiles,measurement,setting,value
CCOC(=O)CCc1c(OC)c(Cl)cc(F)c1-n1c(=O)cc(C(F)(F)F)n(C)c1=O [14-1],"Pre-emerge herbicidal activity, phytotoxicity rating AMARE",[1]; 63 g ai/ha,100
same,"Pre-emerge herbicidal activity, phytotoxicity rating AMARE",[1]; 250 g ai/ha,100
same,"Post-emerge Herbicidal Activity, phytotoxicity rating ABUTH",[2]; Rate 63 g ai/ha,85
same,"Post-emerge Herbicidal Activity, phytotoxicity rating ABUTH",[2]; Rate 250 g ai/ha,98
same,"Post-emerge Herbicidal Activity, phytotoxicity rating SORHA",[3]; Rate 63 g ai/ha,25
same,"Post-emerge Herbicidal Activity, phytotoxicity rating SORHA",[3]; Rate 250 g ai/ha,75
same,"Post-emerge Herbicidal Activity, phytotoxicity rating AMARE",[4]; Rate 63 g ai/ha,100
same,"Post-emerge Herbicidal Activity, phytotoxicity rating AMARE",[4]; Rate 250 g ai/ha,100
same,"Post-emerge Herbicidal Activity, phytotoxicity rating ECHCG",[5]; Rate 63 g ai/ha,85
same,"Post-emerge Herbicidal Activity, phytotoxicity rating ECHCG",[5]; Rate 250 g ai/ha,95
same,"Post-emerge Herbicidal Activity, phytotoxicity rating CHEAL",[6]; Rate 63 g ai/ha,80
same,"Post-emerge Herbicidal Activity, phytotoxicity rating CHEAL",[6]; Rate 250 g ai/ha,98
same,"Post-emerge Herbicidal Activity, phytotoxicity rating IPOHE",[7]; Rate 63 g ai/ha,85
same,"Post-emerge Herbicidal Activity, phytotoxicity rating IPOHE",[7]; Rate 250 g ai/ha,100
same,"Post-emerge Herbicidal Activity, phytotoxicity rating SETVI",[8]; Rate 63 g ai/ha,40
same,"Post-emerge Herbicidal Activity, phytotoxicity rating SETVI",[8]; Rate 250 g ai/ha,70
same,"Post-emerge Herbicidal Activity, phytotoxicity rating CASOB",[9]; Rate 63 g ai/ha,55
same,"Post-emerge Herbicidal Activity, phytotoxicity rating CASOB",[9]; Rate 250 g ai/ha,70
same,"Post-emerge Herbicidal Activity, phytotoxicity rating DIGSA",[10]; Rate 63 g ai/ha,80
same,"Post-emerge Herbicidal Activity, phytotoxicity rating DIGSA",[10]; Rate 250 g ai/ha,95
same,"Pre-emerge phytotoxicity rating, crop damage CORN",[11]; 63 g ai/ha,0
same,"Pre-emerge phytotoxicity rating, crop damage CORN",[11]; 250 g ai/ha,10
same,"Pre-emerge phytotoxicity rating, crop damage RICE",[12]; 63 g ai/ha,15
same,"Pre-emerge phytotoxicity rating, crop damage RICE",[12]; 250 g ai/ha,45
same,"Pre-emerge herbicidal activity, phytotoxicity rating ABUTH",[13]; 63 g ai/ha,75
same,"Pre-emerge herbicidal activity, phytotoxicity rating ABUTH",[13]; 250 g ai/ha,100
same,"Pre-emerge herbicidal activity, phytotoxicity rating SORHA",[14]; 63 g ai/ha,0
same,"Pre-emerge herbicidal activity, phytotoxicity rating SORHA",[14]; 250 g ai/ha,90
same,"Pre-emerge herbicidal activity, phytotoxicity rating AMBEL",[15]; 63 g ai/ha,0
same,"Pre-emerge herbicidal activity, phytotoxicity rating AMBEL",[15]; 250 g ai/ha,0
same,"Pre-emerge herbicidal activity, phytotoxicity rating ECHCG",[16]; 63 g ai/ha,15
same,"Pre-emerge herbicidal activity, phytotoxicity rating ECHCG",[16]; 250 g ai/ha,30
same,"Pre-emerge herbicidal activity, phytotoxicity rating CHEAL",[17]; 63 g ai/ha,98
same,"Pre-emerge herbicidal activity, phytotoxicity rating CHEAL",[17]; 250 g ai/ha,100
same,"Pre-emerge herbicidal activity, phytotoxicity rating IPOHE",[18]; 63 g ai/ha,30
same,"Pre-emerge herbicidal activity, phytotoxicity rating IPOHE",[18]; 250 g ai/ha,75
same,"Pre-emerge herbicidal activity, phytotoxicity rating SETVI",[19]; 63 g ai/ha,15
same,"Pre-emerge herbicidal activity, phytotoxicity rating SETVI",[19]; 250 g ai/ha,55
same,"Pre-emerge herbicidal activity, phytotoxicity rating CASOB",[20]; 63 g ai/ha,0
same,"Pre-emerge herbicidal activity, phytotoxicity rating CASOB",[20]; 250 g ai/ha,0
same,"Pre-emerge herbicidal activity, phytotoxicity rating DIGSA",[21]; 63 g ai/ha,40
same,"Pre-emerge herbicidal activity, phytotoxicity rating DIGSA",[21]; 250 g ai/ha,85
same,Post-emerge phytotoxicity rating CORN (crop damage),[22]; Rate 63 g ai/ha,85
same,Post-emerge phytotoxicity rating CORN (crop damage),[22]; Rate 250 g ai/ha,100
same,Post-emerge phytotoxicity rating RICE (crop damage),[23]; Rate 63 g ai/ha,40
same,Post-emerge phytotoxicity rating RICE (crop damage),[23]; Rate 250 g ai/ha,80
COC(=O)C(Cl)Cc1c(OC)c(Cl)cc(F)c1-n1c(=O)cc(C(F)(F)F)n(C)c1=O (centres unmarked) [14-3],"Pre-emerge herbicidal activity, phytotoxicity rating AMARE",[1]; 63 g ai/ha,100
same,"Pre-emerge herbicidal activity, phytotoxicity rating AMARE",[1]; 250 g ai/ha,100
same,"Post-emerge Herbicidal Activity, phytotoxicity rating ABUTH",[2]; Rate 63 g ai/ha,100
same,"Post-emerge Herbicidal Activity, phytotoxicity rating ABUTH",[2]; Rate 250 g ai/ha,100
same,"Post-emerge Herbicidal Activity, phytotoxicity rating SORHA",[3]; Rate 63 g ai/ha,80
same,"Post-emerge Herbicidal Activity, phytotoxicity rating SORHA",[3]; Rate 250 g ai/ha,70
same,"Post-emerge Herbicidal Activity, phytotoxicity rating AMARE",[4]; Rate 63 g ai/ha,95
same,"Post-emerge Herbicidal Activity, phytotoxicity rating AMARE",[4]; Rate 250 g ai/ha,100
same,"Post-emerge Herbicidal Activity, phytotoxicity rating ECHCG",[5]; Rate 63 g ai/ha,99
same,"Post-emerge Herbicidal Activity, phytotoxicity rating ECHCG",[5]; Rate 250 g ai/ha,100
same,"Post-emerge Herbicidal Activity, phytotoxicity rating CHEAL",[6]; Rate 63 g ai/ha,90
same,"Post-emerge Herbicidal Activity, phytotoxicity rating CHEAL",[6]; Rate 250 g ai/ha,100
same,"Post-emerge Herbicidal Activity, phytotoxicity rating IPOHE",[7]; Rate 63 g ai/ha,50
same,"Post-emerge Herbicidal Activity, phytotoxicity rating IPOHE",[7]; Rate 250 g ai/ha,100
same,"Post-emerge Herbicidal Activity, phytotoxicity rating SETVI",[8]; Rate 63 g ai/ha,30
same,"Post-emerge Herbicidal Activity, phytotoxicity rating SETVI",[8]; Rate 250 g ai/ha,70
same,"Post-emerge Herbicidal Activity, phytotoxicity rating CASOB",[9]; Rate 63 g ai/ha,10
same,"Post-emerge Herbicidal Activity, phytotoxicity rating CASOB",[9]; Rate 250 g ai/ha,75
same,"Post-emerge Herbicidal Activity, phytotoxicity rating DIGSA",[10]; Rate 63 g ai/ha,99
same,"Post-emerge Herbicidal Activity, phytotoxicity rating DIGSA",[10]; Rate 250 g ai/ha,100
same,"Pre-emerge phytotoxicity rating, crop damage CORN",[11]; 63 g ai/ha,0
same,"Pre-emerge phytotoxicity rating, crop damage CORN",[11]; 250 g ai/ha,90
same,"Pre-emerge phytotoxicity rating, crop damage RICE",[12]; 63 g ai/ha,0
same,"Pre-emerge phytotoxicity rating, crop damage RICE",[12]; 250 g ai/ha,50
same,"Pre-emerge herbicidal activity, phytotoxicity rating ABUTH",[13]; 63 g ai/ha,100
same,"Pre-emerge herbicidal activity, phytotoxicity rating ABUTH",[13]; 250 g ai/ha,100
same,"Pre-emerge herbicidal activity, phytotoxicity rating SORHA",[14]; 63 g ai/ha,0
same,"Pre-emerge herbicidal activity, phytotoxicity rating SORHA",[14]; 250 g ai/ha,60
same,"Pre-emerge herbicidal activity, phytotoxicity rating AMBEL",[15]; 63 g ai/ha,0
same,"Pre-emerge herbicidal activity, phytotoxicity rating AMBEL",[15]; 250 g ai/ha,65
same,"Pre-emerge herbicidal activity, phytotoxicity rating ECHCG",[16]; 63 g ai/ha,0
same,"Pre-emerge herbicidal activity, phytotoxicity rating ECHCG",[16]; 250 g ai/ha,40
same,"Pre-emerge herbicidal activity, phytotoxicity rating CHEAL",[17]; 63 g ai/ha,100
same,"Pre-emerge herbicidal activity, phytotoxicity rating CHEAL",[17]; 250 g ai/ha,100
same,"Pre-emerge herbicidal activity, phytotoxicity rating IPOHE",[18]; 63 g ai/ha,0
same,"Pre-emerge herbicidal activity, phytotoxicity rating IPOHE",[18]; 250 g ai/ha,50
same,"Pre-emerge herbicidal activity, phytotoxicity rating SETVI",[19]; 63 g ai/ha,40
same,"Pre-emerge herbicidal activity, phytotoxicity rating SETVI",[19]; 250 g ai/ha,80
same,"Pre-emerge herbicidal activity, phytotoxicity rating CASOB",[20]; 63 g ai/ha,20
same,"Pre-emerge herbicidal activity, phytotoxicity rating CASOB",[20]; 250 g ai/ha,80
same,"Pre-emerge herbicidal activity, phytotoxicity rating DIGSA",[21]; 63 g ai/ha,30
same,"Pre-emerge herbicidal activity, phytotoxicity rating DIGSA",[21]; 250 g ai/ha,90
same,Post-emerge phytotoxicity rating CORN (crop damage),[22]; Rate 63 g ai/ha,100
same,Post-emerge phytotoxicity rating CORN (crop damage),[22]; Rate 250 g ai/ha,100
same,Post-emerge phytotoxicity rating RICE (crop damage),[23]; Rate 63 g ai/ha,5
same,Post-emerge phytotoxicity rating RICE (crop damage),[23]; Rate 250 g ai/ha,80
